According to patent publication US9045555B2, “Vaccine against amyloid folding intermediate” (priority 2008, dated 2015):

Experiments:
[1] = test system: fibrillar Aβ 1-42; assay: ELISA of sera of immunized mice, coating fibrillar Aβ 1-42 (cross-reactivity); assay type: in vivo, Balb/c mice; conditions: in vitro ELISA
[2] = test system: oligomeric Aβ 1-42; assay: ELISA of sera of immunized mice, coating oligomeric Aβ 1-42 (cross-reactivity); assay type: in vivo, Balb/c mice; conditions: in vitro ELISA
[3] = ELISA of sera of immunized mice, coating homologous peptide-BSA conjugates (anti-peptide titre); assay type: in vivo, Balb/c mice
[4] = test system: conformational epitope of Aβ 1-42; assay: Antibody response in mice recognizing a conformational epitope of Aβ 1-42; assay type: in vivo; conditions: epitope as expressed in monomer, soluble oligomer, fibrils or neurodegenerative plaques
[5] = test system: Aβ deposits in post-mortem AD human brain tissue (hippocampus); assay: Immunohistochemical staining of human AD brain sections with sera of immunized mice; conditions: mouse serum 1:300, hippocampus cryosections, Braak 5 or 6; positive control 6E10
Description: FIG. 6: Immunohistochemical staining of human brain section donor 99-30 (Braak 6) with a mouse serum (1:300) immunized with cyclo[Aβ(22-28)-YNGK]/tetanus toxoid conjugate (a) and the control monoclonal 6E10 (1:15.000) in (b). […] (Microscope: Leica DMRE fitted with a DC300 camera)
Human brain sections of the hippocampus of several donors with Alzheimer disease (Braak 5 or 6) were used (Netherlands Brain Bank). Cryosections (10 μm) were cut from unfixed directly frozen tissue, thaw-mounted, dried for 1 hour and stored in a sealed box at −20 C. For immunostaining, sections were fixed in 4% PFA-PBS solution for 10 min, washed in 0.05 M phosphate buffer (PB) for 10 min with 2 exchanges and blocked with 10% normal donkey serum (NDS)+0.4% TritonX100 in 0.05M PB for 1 hour at RT. The blocking solution was discarded and diluted mouse sera (1:300; first antibody) in 3% NDS+0.4% TritonX100 in 0.05 M PB was added and incubated 0/N at RT in a box with wet tissues. Sections were washed with 0.05M PB; at least 30 min with one or more exchanges. Then sections were incubated with Donkey-anti-Mouse˜Cy3 1:1400 in 0.05 M PB for 2 hours. Sections were washed with 0.05M PB; at least 30 min with one or more exchanges. Sections were sealed in Vectashield with Dapi (Vector). Mouse Monoclonal 6E10 to beta amyloid 1-17 (Abcam, Cambridge, UK) was used as positive control (1:15,000).

Substance: Ac-K*EDVGSNKYNG-NH2 (Ac-K(tetanus toxoid)EDVGSNKYNG-NH2) [group 3, tetanus toxoid conjugate of the linear N-acetylated peptide amide]
- cross-reaction of elicited antibodies with Aβ (1-42)-fibrils [1]: did not recognize
- cross-reaction of elicited antibodies with Aβ (1-42)-oligomers [2]: did not recognize
- antipeptide antibody titers / antibody response to the immunizing peptide [3]: good

Substance: cyclo[EDVGSNKYNGK*] (cyclo(EDVGSNKYNGK(tetanus toxoid))) [group 9, tetanus toxoid conjugate of the cyclic peptide [Aβ(22-28)-YNGK*]]
- induction of an antibody response in mice specifically recognizing a conformational epitope of Aβ 1-42 [4]: able to induce an antibody response
- cross-reaction of elicited antibodies with Aβ (1-42)-fibrils [1]: cross-react
- cross-reaction of elicited antibodies with Aβ (1-42)-oligomers [2]: cross-react
- recognition of Aβ deposits / plaques in AD human brain tissue by elicited antibodies [5]: recognize
